One compound from patent publication US7345091B2, “Carotenoid ether analogs or derivatives for the inhibition and amelioration of disease” (Cardax Pharmaceuticals, Inc., priority 2002, dated 2008) can be followed below.

By inhibition is commonly meant the relative decrease from the control value, in per cent. Usually solubility stands for how much of the substance goes into solution per volume.

One series concerns superoxide anion. Description: Superoxide anion scavenging by EPR (DEPMPO spin trap) in phorbol ester-stimulated isolated neutrophils. The class given is cell-based, human. Particulars: for potency relative to the SOD mimetic positive control: adjusted for percent inhibition and tested dose. Here is the method:
In an experiment, neutrophils were isolated on a Percoll gradient from whole blood from a human volunteer. The isolated neutrophils were then re-suspended in phosphate-buffered saline, and maximally stimulated with phorbol ester to induce the respiratory burst and production of superoxide anion. To the solution of activated human neutrophils, the disodium salt disuccinate astaxanthin derivative XVI was added at various concentrations, and the superoxide signal [as measured with electron paramagnetic resonance (EPR) spectroscopy] was subsequently measured. […] The disodium salt disuccinate astaxanthin derivative XVI tested at 100 μM scavenged 28% of the total signal. At 3 mM, almost no superoxide signal remained. […] In addition to reducing the superoxide anion signal important in ischemia-reperfusion injury, it is also likely that myocardial salvage can be achieved with the described carotenoid derivative, as superoxide anion plays a major role in tissue injury and death during prolonged myocardial ischemia. In a third experiment, neutrophils were again isolated on a Percoll gradient from whole blood from a second human volunteer. The isolated neutrophils were then re-suspended in phosphate-buffered saline, and maximally stimulated with phorbol ester to induce the respiratory burst and production of superoxide anion. […] Astaxanthin 2E was dissolved in HPLC grade dimethylsulfoxide (DMSO; Sigma-Aldrich, St. Louis, Mo.). The disodium disuccinate derivatives XVI of astaxanthin 2E were tested separately in […] formulations: statistical mixture of stereoisomers (as for astaxanthin, above, a 1:2:1 mixture of all-E; labeled as “mixture” in all tables and figures); 3S,3'S, and 3R,3'R (optical isomers or enantiomers); and meso (mixture of identical 3S,3'R and 3'S,3R; diastereomers of the enantiomeric pair). […] The disuccinate derivatives were first tested at the appropriate final concentrations in pure aqueous solution (deionized water) from stock solutions of 10 mM. Each of the four disuccinate derivatives were then tested from stock solutions prepared in a 1:2 mixture of ethanol (final concentration of EtOH in stock solution 331⁄3%; final concentration in isolated neutrophil assay 0.3%; HPLC grade ethanol, Sigma-Aldrich, St. Louis, Mo.) at 10 mM. […] Metaphore® Pharmaceuticals, Inc., St. Louis, Mo.) were also performed. Human polymorphonuclear leukocytes (PMNs) were isolated from freshly sampled venous blood of a single volunteer by Percoll density gradient centrifugation, which yielded PMNs with a purity of >95%. Each 10 mL of whole blood was mixed with 0.8 mL of 0.1 M EDTA and 25 mL of saline. The diluted blood was layered over 9 mL of Percoll at a specific density of 1.080 g/mL. After centrifugation at 400×g for 20 min at 20° C., the plasma, mononuclear cell, and Percoll layers were removed. Erythrocytes were lysed by addition of 18 mL of ice-cold water for 30 s, followed by 2 mL of 10× PIPES buffer (25 mM PIPES, 110 mM NaCl, and 5 mM KCl, titrated to pH 7.4 with NaOH). Cells were pelleted at 4° C., the supernatant was decanted, and the procedure was repeated. After the second hypotonic lysis, cells were washed twice with PAG buffer (PIPES buffer containing 0.003% human serum albumin and 0.1% glucose). Afterward, PMNs were counted by light microscopy on a hemocytometer. The final pellet was then suspended in PAG-CM buffer (PAG buffer with 1 mM CaCl2 and 1 mM MgCl2). All EPR measurements were performed using a Bruker ER 300 EPR spectrometer operating at X-band with a TM110 cavity. The microwave frequency was measured with a Model 575 microwave counter (EIP Microwave, Inc., San Jose, Calif.). To measure O^ -2 generation from phorbol-ester (PMA)-stimulated PMNs, EPR spin-trapping studies were performed using DEPMPO (Oxis, Portland, Oreg.) at 10 mM. 1×10^6 PMNs were stimulated with PMA (1 ng/mL) and loaded into capillary tubes for EPR measurements. […]

A short description of series [1]: Liver accumulation of free astaxanthin after single oral dose. The class given is in vivo, male C57BL/6 mice. Here is the method:
Free astaxanthin concentration was also determined, at the same time points as for plasma samples, in liver. Livers were removed from each animal in the pharmacokinetic study after sacrifice, and snap frozen in liquid nitrogen. Liver tissue was prepared for HPLC analysis as described (Jewell, 1999). Therefore, simultaneous examination of liver accumulation of free astaxanthin was performed at the same time points as the plasma analyses. Up to 300 mg of liver from each animal was snap frozen in liquid nitrogen. Tissue homogenization and extraction were performed with a mixture of chloroform/methanol/water, according to the methods of Jewell (1999). Non-esterified, free astaxanthin accumulation in liver was then evaluated by HPLC as described above for plasma samples.

A short description of series [2]: Determination of water solubility. The class given is physicochemical. Here is the method: A total of 30 mg of sample (disodium disuccinate astaxanthin derivative, as the all-trans mixture of stereoisomers 3S,3′S, meso, and 3R,3′R in a 1:2:1 ratio) was added to 2 mL of sterile-filtered ([…] Millipore®) deionized (DI) water in a 15 mL glass centrifuge tube. The tube was wrapped in aluminum foil and the mixture was shaken for 2 hours, then centrifuged at 3500 rpm for 10 minutes. The aqueous solution was filtered through a 0.45 micron PVDF disposable filter device. A 1 mL volume of filtrate was then diluted appropriately with DI water, and the concentration of the solution was measured at 480 nm using a four point calibration curve prepared from fresh sample.

Counter-ions that a name gives are not always drawn. Like-named read-outs stand apart in the source and are kept apart here.

As to `CC1=C(/C=C/C(C)=C/C=C/C(C)=C/C=C/C=C(C)/C=C/C=C(C)/C=C/C2=C(C)C(=O)C(OC(=O)CCC(=O)O)CC2(C)C)C(C)(C)CC(OC(=O)CCC(=O)O)C1=O` (racemic) [XVI, Disodium Salt of the Disuccinic Acid Ester of Astaxanthin], the “total superoxide signal scavenged” value in the series on superoxide anion (100 μM, first experiment (FIG. 2)) is 28%. The “suppression of superoxide anion signal” value in the series on superoxide anion (3 mM, first experiment (FIG. 2)) was “near complete suppression of the superoxide anion signal”. Further, the inhibition at 100 µM in the series with superoxide anion (Homo sapiens, Neutrophil, Solvent EtOH (1:2 EtOH/water stock, 0.3% final), 0.1 mM, read-out: Mean (% inhibition) of superoxide anion signal) was about 40%; in the series on superoxide anion (Homo sapiens, Neutrophil, Solvent Water, 0.1 mM, read-out: Mean (% inhibition) of superoxide anion signal), 19.3%. Moreover, the inhibition at 500 µM in the series with superoxide anion (Homo sapiens, Neutrophil, Solvent EtOH, 0.5 mM, read-out: Mean (% inhibition) of superoxide anion signal) came out at 60.1%. For the same compound, the inhibition at 1000 µM in the series on superoxide anion (Homo sapiens, Neutrophil, Solvent EtOH, 1.0 mM, read-out: Mean (% inhibition) of superoxide anion signal) came out at 78%. Moreover, in the series on superoxide anion (Homo sapiens, Neutrophil, Solvent EtOH, 3.0 mM, read-out: Mean (% inhibition) of superoxide anion signal), the inhibition at 3000 µM was found to be 95%. In addition, the “Mean (% inhibition) of superoxide anion signal” value in the series with superoxide anion (Solvent EtOH (1:2 EtOH/water stock, 0.3% final), 0.1 mM, listed as Mixture) is reported as 38.0%. Also, the “potency relative to the SOD mimetic positive control” value in the series on superoxide anion was “one to two orders of magnitude less potent”; in the series on superoxide anion (listed as disodium disuccinate derivative), “between one and two orders of magnitude less potent”. The compound also yielded an Oral clearance in series [1] (Liver, free astaxanthin, single 500 mg/kg oral dose) of 15.856 L/h. The “liver vs plasma levels of free astaxanthin at each sampling interval” value in series [1] (single 500 mg/kg oral gavage in emulsion) was “equal or greater to that in plasma”. In addition, in series [2] (deionized water, water, thermodynamic from solid, pure aqueous formulation), the solubility at 2 h amounted to 8640 µg/mL. In addition, the “increase in solubility in the dosing vehicle” value in series [2] (emulsion vs pure aqueous formulation) is 6 fold. Further, the solubility in series [2] (olive oil/water/soybean lecithin emulsion, aqueous with cosolvent or surfactant or cyclodextrin, olive oil/water/soybean lecithin emulsion for oral gavage) is about 50 mg/mL. The water solubility entry in series [2] (pure aqueous formulation) is recorded as “approximately 8.64 mg/mL”.
